From the supplement of paper PMC13380429
Structures can show the parent of a compound that is named as a salt.

Tests used:
Details in all cases: 72 h
Calu-3 [1] = experiment: drug sensitivity score (DSS) for viability; higher = more toxic; extreme values may be limits of the assay
U2OS [2] = experiment: as above
HepG2 [3] = experiment: as above
Caco-2 [4] = experiment: as above
Vero E6 [5] = experiment: as above
Calu-3 [6] = experiment: relative viability EC50 (midpoint between 100% and the lowest measured viability); higher = less toxic
U2OS [7] = experiment: as above
HepG2 [8] = experiment: as above
Caco-2 [9] = experiment: as above
Vero E6 [10] = experiment: as above
Calu-3 [11] = experiment: cell viability relative to DMSO; higher = less toxic
U2OS [12] = experiment: as above
HepG2 [13] = experiment: as above
Caco-2 [14] = experiment: as above
Vero E6 [15] = experiment: as above

Compound | drug sensitivity score (Calu-3 [1]) | drug sensitivity score (U2OS [2]) | drug sensitivity score (HepG2 [3]) | drug sensitivity score (Caco-2 [4]) | drug sensitivity score (Vero E6 [5]) | relative viability EC50 (Calu-3 [6]) [µM] | relative viability EC50 (U2OS [7]) [µM] | relative viability EC50 (HepG2 [8]) [µM] | relative viability EC50 (Caco-2 [9]) [µM] | relative viability EC50 (Vero E6 [10]) [µM] | cell viability (Calu-3 [11]; 1 nM) [%] | cell viability (Calu-3 [11]; 10 nM) [%] | cell viability (Calu-3 [11]; 100 nM) [%] | cell viability (Calu-3 [11]; 1000 nM) [%] | cell viability (Calu-3 [11]; 10000 nM) [%] | cell viability (U2OS [12]; 1 nM) [%] | cell viability (U2OS [12]; 10 nM) [%] | cell viability (U2OS [12]; 100 nM) [%] | cell viability (U2OS [12]; 1000 nM) [%] | cell viability (U2OS [12]; 10000 nM) [%] | cell viability (HepG2 [13]; 1 nM) [%] | cell viability (HepG2 [13]; 10 nM) [%] | cell viability (HepG2 [13]; 100 nM) [%] | cell viability (HepG2 [13]; 1000 nM) [%] | cell viability (HepG2 [13]; 10000 nM) [%] | cell viability (Caco-2 [14]; 1 nM) [%] | cell viability (Caco-2 [14]; 10 nM) [%] | cell viability (Caco-2 [14]; 100 nM) [%] | cell viability (Caco-2 [14]; 1000 nM) [%] | cell viability (Caco-2 [14]; 10000 nM) [%] | cell viability (Vero E6 [15]; 1 nM) [%] | cell viability (Vero E6 [15]; 10 nM) [%] | cell viability (Vero E6 [15]; 100 nM) [%] | cell viability (Vero E6 [15]; 1000 nM) [%] | cell viability (Vero E6 [15]; 10000 nM) [%]
O=P(O)(NCCCl)NCCCl [palifosfamide] | 0 | 0 | 0 | 0 | 0 | > 10 | > 10 | > 10 | > 10 | > 10 | 91.6 | 101 | 99.4 | 98.8 | 105 | 100 | 94 | 102 | 98.9 | 97.2 | 100 | 102 | 95.3 | 106 | 108 | 94.4 | 93.7 | 103 | 98.4 | 93.7 | 93.5 | 95.9 | 91.7 | 98.1 | 107
CC(C)c1ccc(C(=O)N=C(N)N)cc1S(C)(=O)=O [cariporide] | 0 | 0 | 0 | 0 | 0 | > 10 | > 10 | > 10 | > 10 | > 10 | 102 | 96.7 | 93.6 | 96.3 | 106 | 100 | 98.2 | 100 | 96.1 | 97 | 102 | 84.4 | 89.7 | 98 | 95.6 | 109 | 107 | 102 | 89.7 | 107 | 102 | 101 | 106 | 108 | 92.3
CCSC(=N)N [EIT-hydrobromide] | 0 | 0 | 0 | 0 | 0 | > 10 | > 10 | > 10 | > 10 | > 10 | 108 | 96.8 | 96.9 | 104 | 103 | 94.2 | 101 | 97.5 | 100 | 103 | 96.9 | 90 | 94.3 | 102 | 103 | 97.7 | 98.1 | 91.1 | 102 | 107 | 94.2 | 99.4 | 96.9 | 95.8 | 105
CC(C)(C)c1ccc(S(=O)(=O)Nc2ccc(Cl)cc2C(=O)c2cc[n+]([O-])cc2)cc1 [vercirnon] | 0 | 0 | 0 | 0 | 0 | > 10 | > 10 | > 10 | > 10 | > 10 | 95.4 | 99.9 | 99.7 | 93 | 96.3 | 97.7 | 97.5 | 97.1 | 104 | 104 | 93.4 | 93.7 | 104 | 106 | 89.4 | 89.6 | 97.4 | 87.4 | 110 | 100 | 98.2 | 97.4 | 94.7 | 95.6 | 106
C[C@H](Cc1ccc2c(c1)OC(C(=O)O)(C(=O)O)O2)NC[C@H](O)c1cccc(Cl)c1 | 0 | 0 | 0 | 0 | 0 | > 10 | > 10 | > 10 | > 10 | > 10 | 103 | 101 | 90.6 | 92.9 | 91.1 | 104 | 101 | 99.1 | 99 | 102 | 97.9 | 101 | 103 | 101 | 97.4 | 103 | 101 | 104 | 97.3 | 111 | 97.5 | 97.2 | 93.1 | 96.4 | 97.9
Cn1cc(-c2ccc(F)c(C(F)(F)F)c2)nc1C1CCN(c2ncnc3[nH]ncc23)CC1 | 0.4 | 0.7 | 0 | 0.2 | 0 | > 10 | > 10 | > 10 | > 10 | > 10 | 95.6 | 90.2 | 96.4 | 94.1 | 82.1 | 96.9 | 94.5 | 90.3 | 90.9 | 84.6 | 106 | 97.8 | 106 | 91.7 | 94.7 | 97 | 96.9 | 102 | 102 | 84.5 | 98.4 | 106 | 96.7 | 95.4 | 92
O=C(O)CCCN1C(=O)c2cccc3cccc(c23)C1=O [isodibut] | 0 | 0 | 0 | 0 | 0 | > 10 | > 10 | > 10 | > 10 | > 10 | 99.1 | 97.8 | 96.9 | 94.8 | 114 | 99.3 | 96.6 | 97.7 | 97.6 | 95.7 | 96.1 | 95.8 | 104 | 105 | 98.9 | 105 | 90.9 | 93.6 | 98.6 | 95.4 | 97 | 97.9 | 103 | 101 | 99.1
Oc1cc(O)cc(/C=C/c2ccc(O)c(O)c2)c1 [piceatannol] | 0 | 0 | 0 | 0.5 | 0 | > 10 | > 10 | > 10 | > 10 | > 10 | 95.3 | 93.5 | 90.4 | 99.9 | 88.9 | 97.5 | 98.2 | 94.2 | 100 | 96.1 | 98.8 | 87.3 | 105 | 92.7 | 97.7 | 90.2 | 93.7 | 101 | 96.1 | 86 | 103 | 94.1 | 94.8 | 92.1 | 101
Brc1c(NC2=NCCN2)ccc2nccnc12 [brimonidine] | 0 | 0 | 0 | 0 | 0 | > 10 | > 10 | > 10 | > 10 | > 10 | 103 | 98.1 | 88.1 | 97.2 | 103 | 100 | 105 | 99.6 | 96.6 | 106 | 98.1 | 97.6 | 96.7 | 107 | 105 | 107 | 97.2 | 108 | 90.7 | 103 | 99 | 102 | 97.5 | 100 | 102
CO[C@H](C(=O)[C@@H](O)[C@@H](C)O)[C@@H]1Cc2cc3cc(O[C@H]4C[C@@H](O[C@H]5C[C@@H](O)[C@H](O)[C@@H](C)O5)[C@@H](O)[C@@H](C)O4)c(C)c(O)c3c(O)c2C(=O)[C@H]1O[C@H]1C[C@@H](O[C@H]2C[C@@H](O[C@H]3C[C@](C)(O)[C@H](O)[C@@H](C)O3)[C@H](O)[C@@H](C)O2)[C@H](O)[C@@H](C)O1 [plicamycin] | 20.8 | 29.5 | 29.1 | 18.9 | 9.2 | 0.0509 | 0.036 | 0.0321 | 0.0245 | 1.46 | 107 | 88.4 | 48.5 | 24 | 28.1 | 96.4 | 100 | 5.9 | 1 | 1.5 | 107 | 99.9 | 5.2 | 4.4 | 6.1 | 101 | 95 | 42.4 | 58.1 | 65.5 | 92.6 | 105 | 95.6 | 73.5 | 4.9
Cn1nc(-c2ccc(C(F)(F)F)cc2)nc2c(=O)n(C)c(=O)nc1-2 [walrycin-B] | 3 | 5.7 | 11.6 | 10.2 | 3.5 | 2.87 | 3.02 | 0.88 | 1.15 | 3.26 | 109 | 108 | 108 | 98 | 48.5 | 105 | 107 | 100 | 98 | 1.8 | 108 | 101 | 84.7 | 51.3 | 1.6 | 96.6 | 99.2 | 99.3 | 61.8 | 7.5 | 102 | 100 | 102 | 101 | 34.4
CCCC(=O)O [sodium-butyrate] | 0 | 0 | 0 | 0 | 0 | > 10 | > 10 | > 10 | > 10 | > 10 | 103 | 95.8 | 96.2 | 97.7 | 102 | 104 | 102 | 98.6 | 106 | 96.5 | 109 | 91.8 | 102 | 91.2 | 99.1 | 104 | 95.8 | 100 | 99.9 | 98.9 | 109 | 101 | 102 | 99.4 | 100
Cc1cc(Oc2ccc3nc(COc4ccc(CC5SC(=O)NC5=O)cc4)n(C)c3c2)cc(C)c1N (stereo not given) [efatutazone] | 0 | 0 | 0 | 0 | 3.6 | > 10 | > 10 | > 10 | > 10 | > 10 | 106 | 102 | 104 | 105 | 99.2 | 98.3 | 104 | 97.5 | 106 | 97.6 | 105 | 99.5 | 106 | 104 | 103 | 102 | 97.6 | 97.1 | 97.3 | 97.4 | 95.4 | 86 | 87.5 | 87.1 | 85.3
